Source: publication PMC12473165, “Theranostic Potential of a New ^64Cu-Labeled NOTA-R954 Peptide Conjugate for Kinin B1R Expressing Prostate Cancer” (Pharmaceutics, 2025)
Square brackets hold non-standard residues; d marks the D form. Peptide text beside a SMILES is read from it. Oic = O=C(O)[C@@H]1C[C@@H]2CCCC[C@@H]2N1; d2Nal = N[C@H](Cc1ccc2ccccc2c1)C(=O)O; αMeF = C[C@](N)(Cc1ccccc1)C(=O)O; Orn = NCCC[C@H](N)C(=O)O

Columns and labels:
hB2R [1] = target: T1, hB2R (Homo sapiens, UniProt P30411); assay: Radioligand competition binding on HEK293 cells stably expressing hB2R; conditions: competition with 1 nM [3H]BK, 1-2 h, serum-free DMEM, means of 2 independent experiments in triplicates, read-out: B2R HEK293 IC50
T1 sequence (P30411 1-391): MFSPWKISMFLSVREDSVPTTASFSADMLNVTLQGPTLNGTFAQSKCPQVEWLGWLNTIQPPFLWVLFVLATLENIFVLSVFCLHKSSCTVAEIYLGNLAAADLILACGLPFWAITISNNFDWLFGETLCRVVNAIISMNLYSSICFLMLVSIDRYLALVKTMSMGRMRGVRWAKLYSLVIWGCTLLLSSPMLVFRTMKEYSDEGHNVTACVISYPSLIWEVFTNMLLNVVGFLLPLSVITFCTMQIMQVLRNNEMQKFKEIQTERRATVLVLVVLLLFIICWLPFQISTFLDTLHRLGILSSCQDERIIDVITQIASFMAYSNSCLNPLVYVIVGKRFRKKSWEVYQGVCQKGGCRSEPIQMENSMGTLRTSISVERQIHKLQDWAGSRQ
Protocol: Radiolabeled ligand competition binding assays were performed on HEK293 cells stably expressing hB1R or hB2R, as previously described. Cells were cultured in 24-well plates and incubated with 4 nM [^3H]Lys[Leu^8]desArg^9BK (for B1R studies) (ART1583; 90–120 Ci/mmol; American Radiolabeled Chemicals) or 1 nM [^3H]BK (for B2R studies) (NET706; 109 Ci/mmol; Perkin-Elmer, Woodbridge, ON, Canada) in serum-free DMEM for 1–2 h in the absence or presence of increasing concentrations of competitors (10^−11–10^−5M). Radioactivity in the samples was measured using a β-scintillation counter (Tri-Carb 2800; Perkin-Elmer). Binding affinities were expressed as IC50 values, calculated using GraphPad Prism version 8.2.1 software (GraphPad Software, San Diego, CA, USA).

hB1R [2] = target: T2, hB1R (Homo sapiens, UniProt P46663); assay: Radioligand competition binding on HEK293 cells stably expressing hB1R; design: expressed in transfected cells; host or cells: QBI-HEK293A (lentiviral transduction, puromycin selection); conditions: HEK293 cells stably expressing hB1R; competition with 4 nM [3H]Lys[Leu8]desArg9BK, 1-2 h, serum-free DMEM; means of 2 independent experiments in triplicates; read-out: B1R HEK293 IC50
T2 sequence (P46663 1-353): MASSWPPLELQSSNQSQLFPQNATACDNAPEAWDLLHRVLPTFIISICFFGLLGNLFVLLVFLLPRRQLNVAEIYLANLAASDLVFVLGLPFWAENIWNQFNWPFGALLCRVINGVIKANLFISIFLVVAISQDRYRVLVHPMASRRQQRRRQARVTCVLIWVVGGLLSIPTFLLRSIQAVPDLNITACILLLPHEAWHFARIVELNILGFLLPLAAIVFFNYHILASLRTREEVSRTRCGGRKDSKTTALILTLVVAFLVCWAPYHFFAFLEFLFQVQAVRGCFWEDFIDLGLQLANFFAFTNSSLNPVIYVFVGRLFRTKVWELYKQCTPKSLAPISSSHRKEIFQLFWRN

native hB1R = target: T3, native hB1R (Homo sapiens, UniProt P46663); assay: Human umbilical vein (HUV) contractility bioassay, B1R; conditions: isolated human umbilical vein contraction, DBK agonist at submaximal concentration; means of 2 independent experiments
T3 construct: from tissue; host or cells: isolated human umbilical vein (HUV)
T3 sequence (P46663 1-353): T2 sequence (P46663 1-353)
Protocol: The potency (apparent affinity) of non-radioactive NOTA-βAla-R954 peptide conjugates at native inducible B1R was assessed using human tissue bioassays with isolated umbilical veins, as previously described. Collection of umbilical cords for these bioassays was approved by the CHUS Human Research Ethics Committee (protocol #97-14; 21 March 1997), and maternal consent was obtained in all cases. Antagonist affinity was expressed in terms of IC50, which represents the molar concentration of an antagonist that reduces the response to a submaximal concentration of the DBK agonist by 50%.

hB1R [3] = target: T2, hB1R; assay: NFAT-eGFP reporter assay in CHO-hB1R-NFAT-eGFP cells; format: cell-based; design: expressed in transfected cells; host or cells: CHO (hB1R-expressing line, then transduced with NFAT-eGFP reporter)
Text: The pLenti-6V5-NFAT-eGFP vector was generated from the pSIRV-NFAT-eGFP vector (a gift from Peter Steinberger, Addgene plasmid #118031). Briefly, NFAT-eGFP gene was PCR amplified using the following primers: 5′-[…]-3′ and 5′-[…]-3′). The amplified gene was then ligated into the ClaI and AgeI restriction sites of the pLenti-6V5 vector. Lentiviruses were produced using the pLenti-6V5-NFAT-eGFP vector in HEK293T cells and used to transduce a hB1R-expressing CHO cell line, followed by selection with 10 µg/mL blasticidin. […] Clones were grown in 4000 nanowells/well in 24-well plates and re-plated into 96-well plates after initial expansion via the ALS CellCelector™ (Sartorius Corporation, Bohemia, NY, USA). After clonal expansion, individual cell lines were evaluated based on their ratio of stimulated fluorescence to basal expression to determine maximum sensitivity.
Fluorescence assays performed on CHO-hB1R-NFAT-eGFP cells. Target cells were plated at 10,000 cells/well in a 96-well microplate (opaque black wells with clear flat bottom, Thermo Scientific, Rockford, IL, USA) using RPMI 1640 medium with 10% fetal bovine serum (FBS). After 24 h, the medium was replaced by RPMI without FBS and phenol red. […] Fluorescence was measured using a TECAN M1000 (Tecan Group Ltd., Männedorf, Switzerland) multimode microplate reader with excitation at 488 nm and emission at 507 nm. Each data point represents a ratio of two values, divided by the average fluorescence of six control wells. […] Antagonist affinity (Kb) was estimated from functional inhibition curves using the Gaddum (Schild) equation assuming competitive antagonism at human B1R: Kb = [B]/(dose-ratio–1), where [B] is the antagonist concentration, and the dose ratio is EC50 + Compound/EC50.

hB2R [4] = target: T1, hB2R; assay: Human umbilical vein (HUV) contractility bioassay, B2R; design: native (HUV) human kinin B1R and B2R; from tissue; host or cells: isolated human umbilical vein (HUV); conditions: isolated human umbilical vein contraction; means of 2 independent experiments

## CC[C@H](C)[C@H](NC(=O)[C@@H](Cc1ccc2ccccc2c1)NC(=O)[C@H](CO)NC(=O)[C@](C)(Cc1ccccc1)NC(=O)CNC(=O)[C@@H]1CCCN1C(=O)[C@@H]1C[C@@H]2CCCC[C@@H]2N1C(=O)[C@H](CCCNC(=N)N)NC(=O)[C@H](CCCN)NC(C)=O)C(=O)O [R954, AcOrn[Oic^2,^(αMe)Phe5,DβNal^7,Ile^8]desArg^9-bradykinin] (Ac-[Orn]R[Oic]PG[αMeF]S[d2Nal]I-OH)
hB2R [1]
  IC50: > 10000 nM
hB1R [2]
  IC50: 2 nM
Native hB1R
  IC50: 3 nM
hB1R [3]; hB1R-stably expressing CHO-NFAT cells, antagonist potency, means of two independent experiments, read-out: CHO-NFAT IC50 (Table S1)
  IC50: 1.4 nM
hB1R [3]; read-out: B1R-NFAT CHO Kb
  Kb: 1.4 nM
hB2R [4]
  IC50: > 10000 nM
